Experimental data taken from patent publication US11046697B2, “Compounds and compositions useful for treating disorders related to NTRK” (BLUEPRINT MEDICINES CORPORATION, priority 2015, dated 2021).
Where two headings read alike, the source gives them in different places.

Tests used:
[1] = tested on: KM12 Cliff (G595R) cell line; experiment: NTRK G595R mutant cellular assay (CellTiter-Glo growth inhibition); assay type: cell-based; details: 72 hr, CellTiter-Glo
Procedure: (§1) NTRK Wild Type and G595R Mutant Cellular Assays Protocol
(§2) KM12 wild type colon carcinoma cell line harboring the TPM3-NTRK1 fusion protein was obtained from the National Cancer Institute (NCI). This line has been previously shown to be dependent upon the NTRK activity derived from the NTRK fusion protein for growth and survival. […] Cells were first plated in 384-well plates at 1000 cells/well in complete media (10% FBS and 1% pen/strep) and incubated overnight at 37° C. Cells were then dosed with test articles at varying concentrations using the Bravo liquid handling system. […] Each compound was run in duplicate per plate. […] 72 hr after dosing, assay plates were developed using CellTiter-Glo (Promega) and resultant luminescence was read on the Envision plate reader. IC50 determinations were calculated using a 4-parameter curve fitting algorithm

[2] = tested on: KM12 wild type colon carcinoma cell line harboring the TPM3-NTRK1 fusion protein; experiment: NTRK wild type cellular assay (CellTiter-Glo growth inhibition); assay type: cell-based; details: 72 hr, CellTiter-Glo, read-out: KM12 (WT) IC50
Procedure: as §1, §2

wild type NTRK1 enzyme = molecular target: T1, wild type NTRK1 enzyme (Homo sapiens, UniProt P04629); experiment: NTRK1 Wild Type Assay at 1 mM ATP; assay type: biochemical; details: 1 mM ATP; read-out: Enz NTRK1 IC50
T1 construct: purchased BPS Bioscience 40280
Procedure: NTRK1 Wild Type Assay at 1 mM ATP
The reaction was stopped by the addition of 70 μL of Stop buffer (100 mM HEPES pH 7.5, 0.015% Brij 35, 35 mM EDTA and 0.2% of Coating Reagent 3 (Caliper Lifesciences)). The plate was then read on a Caliper EZReader 2 (protocol settings: −1.7 psi, upstream voltage −500, downstream voltage −3000, post sample sip 35s).

T1 sequence (P04629 440-796 limits assumed): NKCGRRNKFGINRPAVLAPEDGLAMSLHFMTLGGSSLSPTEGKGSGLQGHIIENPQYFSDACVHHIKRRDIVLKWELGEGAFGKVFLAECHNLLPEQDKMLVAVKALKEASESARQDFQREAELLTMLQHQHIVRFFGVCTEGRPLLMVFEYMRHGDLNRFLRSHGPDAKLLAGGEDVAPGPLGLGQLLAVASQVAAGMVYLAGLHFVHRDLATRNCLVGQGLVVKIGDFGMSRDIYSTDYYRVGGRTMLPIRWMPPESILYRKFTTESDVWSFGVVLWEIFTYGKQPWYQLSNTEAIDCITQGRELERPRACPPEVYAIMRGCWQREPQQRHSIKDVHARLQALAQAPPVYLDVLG

SMILES | IC50 ([2]; Homo sapiens, KM12, 72 h) [nM] | IC50 (wild type NTRK1 enzyme) [nM] | IC50 [2] [nM] | IC50 ([1]; Homo sapiens, KM12, 72 h) [nM] | IC50 [1] [nM]
COc1c(F)cc(F)cc1CNC(=O)c1n[nH]c2ncnc(N[C@@H]3COCC[C@H]3O)c12 [Compound 54] | 100 to 1000 | 10 to 100 | – | 100 to 1000 | –
O=C(N[C@H](CO)c1cc(F)ccc1F)c1n[nH]c2ncnc(N[C@@H]3COCC[C@H]3O)c12 [Compound 56] | 100 to 1000 | 10 to 100 | – | 100 to 1000 | –
CN(Cc1cc(F)cnc1Cl)C(=O)c1n[nH]c2ncnc(N[C@@H]3CC[C@@H](O)[C@H]3O)c12 [Compound 60] | 10 to 100 | 10 to 100 | – | 10 to 100 | –
CN(Cc1cc(F)cc(F)c1F)C(=O)c1n[nH]c2ncnc(N[C@@H]3CC[C@@H](O)[C@H]3O)c12 [Compound 63] | 10 to 100 | < 10 | – | 10 to 100 | –
CN(Cc1cc(F)ccc1C(F)(F)F)C(=O)c1n[nH]c2ncnc(N[C@@H]3CC[C@@H](O)[C@H]3O)c12 [Compound 99] | < 10 | < 10 | – | < 10 | –
O=C(NCc1cc(F)ccc1OC(F)(F)F)c1n[nH]c2ncnc(N[C@@H]3CC[C@@H](O)[C@H]3O)c12 [Compound 101] | 100 to 1000 | 100 to 1000 | – | 100 to 1000 | –
O=C(N[C@@H](c1cc(F)ccc1F)C(F)(F)F)c1n[nH]c2ncnc(N[C@@H]3COCC[C@H]3O)c12 [Compound 103] | > 1000 | > 1000 | – | > 1000 | –
O=C(c1n[nH]c2ncnc(N[C@@H]3CC[C@@H](O)[C@H]3O)c12)N1CC(F)(F)C[C@@H]1c1cc(F)cc(F)c1 [Compound 108] | 100 to 1000 | 10 to 100 | – | 100 to 1000 | –
CN(Cc1cc(F)ccc1OC(F)(F)F)C(=O)c1n[nH]c2ncnc(N[C@@H]3CC[C@@H](O)[C@H]3O)c12 [Compound 110] | 10 to 100 | < 10 | – | 10 to 100 | –
COc1ccc(F)cc1CNC(=O)c1n[nH]c2ncnc(N[C@@H]3CC[C@@H](O)[C@H]3O)c12 [Compound 117] | 100 to 1000 | 100 to 1000 | – | > 1000 | –
CN(Cc1cc(F)cc(Cl)c1F)C(=O)c1n[nH]c2ncnc(N[C@@H]3CC[C@@H](O)[C@H]3O)c12 [Compound 120] | 10 to 100 | 10 to 100 | – | 10 to 100 | –
CN(Cc1ccccc1)C(=O)c1n[nH]c2ncnc(N[C@@H]3CC[C@@H](O)[C@H]3O)c12 [Compound 131] | – | 100 to 1000 | 100 to 1000 | – | 100 to 1000
CN(Cc1cccc(F)c1)C(=O)c1n[nH]c2ncnc(N[C@@H]3CC[C@@H](O)[C@H]3O)c12 [Compound 132] | 10 to 100 | 10 to 100 | – | 100 to 1000 | –
CN(Cc1cccnc1F)C(=O)c1n[nH]c2ncnc(N[C@@H]3CC[C@@H](O)[C@H]3O)c12 [Compound 133] | – | 100 to 1000 | 100 to 1000 | – | 100 to 1000

More lines, main results first:

IC50 ([2]; Homo sapiens, KM12, 72 h) [nM] | IC50 (wild type NTRK1 enzyme) [nM] | IC50 [2] [nM] | SMILES | IC50 ([1]; Homo sapiens, KM12, 72 h) [nM] | IC50 [1] [nM]
100 to 1000 | 100 to 1000 | – | O=C(NC(CO)c1cc(F)ccc1F)c1n[nH]c2ncnc(NC3CC(F)CC3O)c12 (stereo not drawn) [Compound 61] | > 1000 | –
10 to 100 | 10 to 100 | – | O=C(c1n[nH]c2ncnc(N[C@@H]3CC[C@@H](O)[C@H]3O)c12)N1CCC[C@@H]1c1cc(F)ccc1F [Compound 71] | 100 to 1000 | –
< 10 | < 10 | – | O=C(c1n[nH]c2ncnc(N[C@@H]3CCOC[C@H]3O)c12)N1C[C@@H](F)C[C@@H]1c1cncc(F)c1 [Compound 73] | 10 to 100 | –
10 to 100 | < 10 | – | O=C(c1n[nH]c2ncnc(N[C@@H]3COCC[C@H]3O)c12)N1C[C@@H](F)C[C@@H]1c1cncc(F)c1 [Compound 74] | 10 to 100 | –
< 10 | < 10 | – | O=C(c1n[nH]c2ncnc(N[C@@H]3COC[C@H]3O)c12)N1C[C@@H](F)C[C@@H]1c1cc(F)ccc1F [Compound 78] | 10 to 100 | –
< 10 | < 10 | – | N#C[C@H]1C[C@H](c2cc(F)ccc2F)N(C(=O)c2n[nH]c3ncnc(N[C@@H]4CCC[C@H]4O)c23)C1 [Compound 79] | 10 to 100 | –
< 10 | < 10 | – | O=C(c1n[nH]c2ncnc(N[C@@H]3C[C@@H](O)C[C@H]3O)c12)N1C[C@@H](F)C[C@@H]1c1cc(F)ccc1F [Compound 86] | < 10 | –
< 10 | < 10 | – | O=C(c1n[nH]c2ncnc(N[C@@H]3COCC[C@H]3O)c12)N1C[C@@H](F)C[C@@H]1c1cc(F)ccc1F [Compound 92] | < 10 | –
< 10 | < 10 | – | O=C(c1n[nH]c2ncnc(NC3CC(F)CC3O)c12)N1CC(F)CC1c1cc(F)ccc1F (stereo not drawn) [Compound 95] | < 10 | –
10 to 100 | < 10 | – | CS(=O)(=O)[C@H]1C[C@@H](O)[C@H](Nc2ncnc3[nH]nc(C(=O)NCc4cc(F)ccc4F)c23)C1 [Compound 97, N-(2,5-difluorobenzyl)-4-(((1R,2R,4R)-2-hydroxy-4-(methylsulfonyl)cyclopentyl)amino)-1H-pyrazolo[3,4-d]pyrimidine-3-carboxamide] | 100 to 1000 | –
10 to 100 | 10 to 100 | – | N#C[C@H]1C[C@H](c2cc(F)ccc2F)N(C(=O)c2n[nH]c3ncnc(N[C@@H]4COCC[C@H]4O)c23)C1 [Compound 100] | 100 to 1000 | –
< 10 | < 10 | – | O=C(c1n[nH]c2ncnc(N[C@H]3[C@H](O)[C@H](O)[C@@H]4C[C@@H]43)c12)N1C[C@@H](F)C[C@@H]1c1cc(F)ccc1F [Compound 104] | < 10 | –
< 10 | < 10 | – | O=C(c1n[nH]c2ncnc(N[C@@H]3CCC[C@@H](O)[C@H]3O)c12)N1C[C@@H](F)C[C@@H]1c1cc(F)ccc1F [Compound 106] | < 10 | –
10 to 100 | 10 to 100 | – | O=C(c1n[nH]c2ncnc(N[C@H]3[C@H](O)[C@H](O)[C@@H]4C[C@@H]43)c12)N1CC(F)(F)C[C@@H]1c1cc(F)ccc1F [Compound 112] | 100 to 1000 | –
< 10 | < 10 | – | O=C(c1n[nH]c2ncnc(N[C@@H]3C[C@@H](C(F)F)[C@@H](O)[C@H]3O)c12)N1C[C@@H](F)C[C@@H]1c1cc(F)ccc1F [Compound 114] | < 10 | –
< 10 | < 10 | – | CS(=O)(=O)C1CC(O)C(Nc2ncnc3[nH]nc(C(=O)N4CC(F)CC4c4cc(F)ccc4F)c23)C1 (stereo not drawn) [Compound 116] | < 10 | –
< 10 | < 10 | – | O=C(c1n[nH]c2ncnc(N[C@H]3[C@H](O)[C@H](O)[C@@H]4C[C@@H]43)c12)N1C[C@@H](F)C[C@@H]1c1cccc(F)c1 [Compound 122] | < 10 | –
< 10 | < 10 | – | O=C(c1n[nH]c2ncnc(N[C@@H]3CC[C@@H](O)[C@H]3O)c12)N1C[C@@H](F)C[C@@H]1c1cc(F)cc(Cl)c1 [Compound 127] | < 10 | –
10 to 100 | < 10 | – | N#Cc1cc(F)cc([C@H]2C[C@H](F)CN2C(=O)c2n[nH]c3ncnc(N[C@H]4[C@H](O)[C@H](O)[C@@H]5C[C@@H]54)c23)c1 [Compound 129] | 10 to 100 | –
– | < 10 | < 10 | O=C(c1n[nH]c2ncnc(N[C@@H]3CCC[C@@H](O)[C@H]3O)c12)N1C[C@@H](F)C[C@@H]1c1cc(F)cc(Cl)c1 [Compound 130] | – | < 10
